Publication PMC11992225, “Antibacterial compounds against non-growing and intracellular bacteria” (npj Antimicrobials and Resistance, 2025)
“And” between values parts separate entries of the source, which are not always exact repeats. Identical values can stand only once.

How the values were obtained:
[1] = test system: non-growing S. aureus DSM2569; test: Dose-dependent killing analysis (CFU spot-plating) of stationary-phase S. aureus; type: cell-based, Staphylococcus aureus; settings: S. aureus, individual replicates
In short: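 Stationary-phase S. aureus DSM2569 was grown and treated for 24 h in 1:4 CA-MHB at pH 7.4. Treated samples were serially diluted 10-fold in PBS and spot-plated on LB agar, which was incubated overnight at 37 °C. Survivors were counted as CFU over three biological replicates.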

[2] = test system: non-growing UPEC CFT073; test: Dose-dependent killing analysis (CFU spot-plating) of stationary-phase UPEC; type: cell-based, Escherichia coli; settings: E. coli in 1:4 CA-MHB (pH 7.4), individual replicates
In short: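 Non-growing (stationary-phase) UPEC CFT073 treated with compounds in 96-well format at 200 μl, then 10-fold serially diluted in PBS and 10 μl spots plated on LB agar. Plates incubated overnight at 37 °C; colonies counted at lowest resolvable dilution to give CFU. Three biological replicates.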

[3] = test system: non-growing P. aeruginosa DSM1117; test: Dilution-regrowth assay (OD600, start-growth-time) on stationary-phase P. aeruginosa; type: cell-based, Pseudomonas aeruginosa; settings: P. aeruginosa; for Regrowth, OD600 at 6h or 8h after dilution into drug-free medium: average; for EC50: Pseudomonas aeruginosa, DSM1117, regrowth delay of non-growing bacteria, 1:4 CA-MHB pH 7.4, 24 h treatment, OD600 8 h after dilution, read-out: EC50
In short: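 Stationary-phase cultures grown 24 h at 37 °C, 200 rpm, in 1:4 CA-MHB with 40 mM HEPES (pH 7.4), treated 24 h; preliminary compounds at 20 μM, 4 replicates. Regrowth OD600 read every 20 min at 37 °C; start-growth-time is when OD600 exceeds 0.12.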

[4] = test system: non-growing S. aureus DSM2569; test: Dilution-regrowth assay (OD600, start-growth-time) on stationary-phase S. aureus; type: cell-based, Staphylococcus aureus; settings: S. aureus; for Regrowth, OD600 at 6h or 8h after dilution into drug-free medium: average; for EC50: Staphylococcus aureus, DSM2569, regrowth delay of non-growing bacteria, 1:4 CA-MHB pH 7.4, 24 h treatment, OD600 8 h after dilution, read-out: EC50
In short: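 Stationary-phase S. aureus cultures were grown and exposed to compound for 24 h in 1:4 CA-MHB (pH 7.4) at 37 °C in 96-well plates with 200 μl volume. After dilution into drug-free medium, regrowth was tracked in a plate reader at 37 °C with continuous shaking, reading OD600 every 20 min; EC50 came from five-parameter logistic fitting.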

Compound | log10(CFU/ml) after treatment ([1]; concentration 0.1) | log10(CFU/ml) after treatment ([1]; concentration 0.5) | log10(CFU/ml) after treatment ([1]; concentration 2.5) | log10(CFU/ml) after treatment ([1]; concentration 10) | log10(CFU/ml) after treatment ([2]; concentration 0.25) | log10(CFU/ml) after treatment ([2]; concentration 0.5) | log10(CFU/ml) after treatment ([2]; concentration 1) | log10(CFU/ml) after treatment ([2]; concentration 2.5) | log10(CFU/ml) after treatment ([2]; concentration 5) | log10(CFU/ml) after treatment ([2]; concentration 10) | Regrowth, OD600 at 6h or 8h after dilution into drug-free medium ([3]; concentration 0.1) | Regrowth, OD600 at 6h or 8h after dilution into drug-free medium ([3]; concentration 0.5) | Regrowth, OD600 at 6h or 8h after dilution into drug-free medium ([3]; concentration 2.5) | Regrowth, OD600 at 6h or 8h after dilution into drug-free medium ([3]; concentration 10) | EC50 [3] [µM] | Regrowth, OD600 at 6h or 8h after dilution into drug-free medium ([4]; concentration 0.1) | Regrowth, OD600 at 6h or 8h after dilution into drug-free medium ([4]; concentration 0.5) | Regrowth, OD600 at 6h or 8h after dilution into drug-free medium ([4]; concentration 2.5) | Regrowth, OD600 at 6h or 8h after dilution into drug-free medium ([4]; concentration 10) | EC50 [4] [µM]
N[C@@H]1CCCCN(c2c(F)cc3c(=O)c(C(=O)O)cn(C4CC4)c3c2Cl)C1 [Besifloxacin] | 9.061 log10(CFU/ml) and 9.079 log10(CFU/ml) and 8.740 log10(CFU/ml) | 8.398 log10(CFU/ml) and 8.431 log10(CFU/ml) and 8.104 log10(CFU/ml) | 7.196 log10(CFU/ml) and 7.716 log10(CFU/ml) and 6.826 log10(CFU/ml) | 7.033 log10(CFU/ml) and 7.000 log10(CFU/ml) and 6.100 log10(CFU/ml) | 8.778 log10(CFU/ml) and 8.699 log10(CFU/ml) and 8.477 log10(CFU/ml) | 8.491 log10(CFU/ml) and 8.204 log10(CFU/ml) (2×) | 7.568 log10(CFU/ml) and 7.322 log10(CFU/ml) and 7.301 log10(CFU/ml) | 6.462 log10(CFU/ml) and 6.204 log10(CFU/ml) and 6.342 log10(CFU/ml) | 6.398 log10(CFU/ml) and 5.342 log10(CFU/ml) and 5.362 log10(CFU/ml) | 6.114 log10(CFU/ml) and 5.230 log10(CFU/ml) and 5.000 log10(CFU/ml) | 0.563 | 0.201 | 0.091 | 0.090 | 0.266 | 0.576 | 0.336 | 0.134 | 0.097 | 0.401
COc1c(N2C[C@@H]3CCCN[C@@H]3C2)c(F)cc2c(=O)c(C(=O)O)cn(C3CC3)c12 [Moxifloxacin] | 8.934 log10(CFU/ml) and 9.196 log10(CFU/ml) and 8.708 log10(CFU/ml) | 8.748 log10(CFU/ml) and 9.004 log10(CFU/ml) and 8.204 log10(CFU/ml) | 8.505 log10(CFU/ml) and 8.431 log10(CFU/ml) and 8.167 log10(CFU/ml) | 8.158 log10(CFU/ml) and 8.021 log10(CFU/ml) and 7.519 log10(CFU/ml) | 8.602 log10(CFU/ml) and 8.380 log10(CFU/ml) and 8.255 log10(CFU/ml) | 8.041 log10(CFU/ml) and 7.903 log10(CFU/ml) and 7.699 log10(CFU/ml) | 7.415 log10(CFU/ml) and 6.845 log10(CFU/ml) and 6.903 log10(CFU/ml) | 5.954 log10(CFU/ml) and 5.230 log10(CFU/ml) and 5.380 log10(CFU/ml) | 5.602 log10(CFU/ml) and 5.204 log10(CFU/ml) and 5.146 log10(CFU/ml) | 6.114 log10(CFU/ml) and 4.903 log10(CFU/ml) and 5.000 log10(CFU/ml) | 0.549 | 0.215 | 0.094 | 0.093 | 0.264 | 0.607 | 0.484 | 0.330 | 0.150 | 4.82
